Source: BindingDB's records for doi:10.1021/jm051273d (University of North Carolina At Chapel Hill, 2006)

How the values were obtained:
Assay in all cases: PDE4 Activity Assay
Settings in all cases: pH 7.5; 22 °C
[1] = molecular target: cAMP-specific 3',5'-cyclic phosphodiesterase 4D (Homo sapiens, UniProt Q08499)
Protocol: (§1) PDE4 catalytic activity was monitored by measuring the hydrolysis of [3H]-cAMP to [3H]-AMP using PDE-SPA kit (Amersham International). [3H]-AMP was captured by the SPA beads, and quantified on a Wallac-Microbeta scintillation counter. A linear reaction progress curve (30 min) and a linear enzyme concentration response (0 to 500 pM) were observed. The IC50 value was calculated from an 11-point dose-response curve performed in duplicate using a 4-parameter least-squares nonlinear regression fit.

[2] = molecular target: cAMP-specific 3',5'-cyclic phosphodiesterase 4A (Homo sapiens, UniProt P27815)
Chain of cAMP-specific 3',5'-cyclic phosphodiesterase 4A (P27815 whole entry): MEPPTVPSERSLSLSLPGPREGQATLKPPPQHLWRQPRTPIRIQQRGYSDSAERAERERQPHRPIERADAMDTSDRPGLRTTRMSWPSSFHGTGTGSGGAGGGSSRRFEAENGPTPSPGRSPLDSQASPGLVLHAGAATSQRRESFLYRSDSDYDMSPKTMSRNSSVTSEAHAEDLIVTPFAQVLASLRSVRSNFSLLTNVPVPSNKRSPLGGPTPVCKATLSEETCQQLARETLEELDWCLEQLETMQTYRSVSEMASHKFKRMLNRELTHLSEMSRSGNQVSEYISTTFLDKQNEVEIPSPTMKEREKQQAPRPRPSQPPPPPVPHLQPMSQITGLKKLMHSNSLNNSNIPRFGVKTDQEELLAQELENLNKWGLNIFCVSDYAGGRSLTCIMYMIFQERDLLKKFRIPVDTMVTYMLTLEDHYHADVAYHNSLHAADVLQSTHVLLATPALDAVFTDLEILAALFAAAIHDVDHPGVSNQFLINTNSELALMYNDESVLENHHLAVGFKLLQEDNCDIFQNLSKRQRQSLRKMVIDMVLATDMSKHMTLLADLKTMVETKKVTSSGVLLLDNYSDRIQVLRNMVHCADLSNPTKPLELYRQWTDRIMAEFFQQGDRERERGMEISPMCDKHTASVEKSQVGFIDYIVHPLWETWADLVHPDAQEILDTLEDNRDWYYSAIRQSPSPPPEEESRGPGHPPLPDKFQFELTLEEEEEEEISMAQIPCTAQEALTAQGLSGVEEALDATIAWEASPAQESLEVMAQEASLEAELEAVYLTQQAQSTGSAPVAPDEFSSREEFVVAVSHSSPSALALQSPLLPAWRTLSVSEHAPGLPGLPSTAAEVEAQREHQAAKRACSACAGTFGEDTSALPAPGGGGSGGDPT
Protocol: as §1

[3] = molecular target: cAMP-specific 3',5'-cyclic phosphodiesterase 4C (Homo sapiens, UniProt Q08493)
Chain of cAMP-specific 3',5'-cyclic phosphodiesterase 4C (Q08493 whole entry): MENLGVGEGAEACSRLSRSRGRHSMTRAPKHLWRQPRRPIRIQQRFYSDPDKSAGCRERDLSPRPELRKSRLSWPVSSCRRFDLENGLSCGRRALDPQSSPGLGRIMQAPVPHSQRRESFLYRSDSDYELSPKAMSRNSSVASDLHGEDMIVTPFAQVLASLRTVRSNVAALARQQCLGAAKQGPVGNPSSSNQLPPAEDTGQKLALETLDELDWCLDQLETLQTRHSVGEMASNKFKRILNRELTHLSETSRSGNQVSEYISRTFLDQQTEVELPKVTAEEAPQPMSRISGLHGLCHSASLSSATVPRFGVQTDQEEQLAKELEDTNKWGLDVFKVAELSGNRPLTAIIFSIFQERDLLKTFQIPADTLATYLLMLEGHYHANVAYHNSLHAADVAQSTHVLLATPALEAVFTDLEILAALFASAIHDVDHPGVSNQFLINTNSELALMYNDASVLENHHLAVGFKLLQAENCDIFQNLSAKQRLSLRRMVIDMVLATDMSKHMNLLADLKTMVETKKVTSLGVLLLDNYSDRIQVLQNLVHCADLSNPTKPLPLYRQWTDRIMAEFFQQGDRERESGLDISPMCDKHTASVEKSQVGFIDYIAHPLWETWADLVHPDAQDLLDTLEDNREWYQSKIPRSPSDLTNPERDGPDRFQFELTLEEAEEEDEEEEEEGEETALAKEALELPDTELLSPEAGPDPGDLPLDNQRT
Protocol: as §1

[4] = molecular target: cAMP-specific 3',5'-cyclic phosphodiesterase 4B (Homo sapiens, UniProt Q07343)
Chain of cAMP-specific 3',5'-cyclic phosphodiesterase 4B (Q07343 whole entry): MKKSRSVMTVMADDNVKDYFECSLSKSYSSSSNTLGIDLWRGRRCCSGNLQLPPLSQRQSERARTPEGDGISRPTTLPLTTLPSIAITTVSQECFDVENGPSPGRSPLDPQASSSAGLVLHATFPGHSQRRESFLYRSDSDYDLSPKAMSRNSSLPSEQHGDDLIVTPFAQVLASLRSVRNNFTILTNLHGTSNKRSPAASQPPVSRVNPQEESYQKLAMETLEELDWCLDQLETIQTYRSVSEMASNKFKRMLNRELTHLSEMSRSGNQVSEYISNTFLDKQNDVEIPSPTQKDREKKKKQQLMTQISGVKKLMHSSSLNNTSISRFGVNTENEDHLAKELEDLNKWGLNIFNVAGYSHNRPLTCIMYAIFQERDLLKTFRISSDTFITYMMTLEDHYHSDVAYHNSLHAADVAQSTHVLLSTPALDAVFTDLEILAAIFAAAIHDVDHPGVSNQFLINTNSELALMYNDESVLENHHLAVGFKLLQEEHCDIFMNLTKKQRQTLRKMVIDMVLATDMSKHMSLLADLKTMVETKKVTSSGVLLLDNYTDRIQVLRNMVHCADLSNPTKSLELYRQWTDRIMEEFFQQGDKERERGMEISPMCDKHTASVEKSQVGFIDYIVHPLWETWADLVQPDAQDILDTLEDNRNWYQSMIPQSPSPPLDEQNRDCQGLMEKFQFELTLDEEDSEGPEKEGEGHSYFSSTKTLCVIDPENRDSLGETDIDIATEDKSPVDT
Protocol: as §1

Chain of cAMP-specific 3',5'-cyclic phosphodiesterase 4D (Q08499 whole entry): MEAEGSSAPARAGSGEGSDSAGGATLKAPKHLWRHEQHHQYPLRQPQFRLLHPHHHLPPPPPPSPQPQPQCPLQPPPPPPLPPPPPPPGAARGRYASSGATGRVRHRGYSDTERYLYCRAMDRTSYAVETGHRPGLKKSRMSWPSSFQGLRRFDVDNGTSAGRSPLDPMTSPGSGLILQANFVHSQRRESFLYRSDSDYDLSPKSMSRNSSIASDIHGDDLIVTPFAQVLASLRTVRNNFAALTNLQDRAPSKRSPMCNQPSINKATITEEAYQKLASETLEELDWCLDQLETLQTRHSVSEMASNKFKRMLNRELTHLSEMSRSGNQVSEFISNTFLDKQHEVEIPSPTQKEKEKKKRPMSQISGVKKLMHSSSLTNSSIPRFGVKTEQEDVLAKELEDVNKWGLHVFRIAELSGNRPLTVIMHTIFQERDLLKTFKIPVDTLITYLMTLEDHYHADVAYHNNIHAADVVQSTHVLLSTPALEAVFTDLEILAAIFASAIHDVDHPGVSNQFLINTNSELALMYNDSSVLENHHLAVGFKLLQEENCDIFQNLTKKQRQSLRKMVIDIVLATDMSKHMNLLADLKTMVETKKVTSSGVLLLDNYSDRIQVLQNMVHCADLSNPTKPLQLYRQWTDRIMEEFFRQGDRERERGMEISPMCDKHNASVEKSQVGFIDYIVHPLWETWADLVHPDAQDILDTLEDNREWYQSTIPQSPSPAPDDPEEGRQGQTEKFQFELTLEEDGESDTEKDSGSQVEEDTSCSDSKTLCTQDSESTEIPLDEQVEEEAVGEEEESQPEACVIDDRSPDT

[O-][n+]1cccc(C[C@@H](c2ccc(OC(F)F)c(OC3CC3)c2)c2ncc(C(O)(C(F)(F)F)C(F)(F)F)s2)c1 [3-[(2S)-2-[3-cyclopropoxy-4-(difluoromethoxy)phenyl]-2-[5-(1,1,1,3,3,3-hexafluoro-2-hydroxypropan-2-yl)-1,3-thiazol-2-yl]ethyl]-1-oxidopyridin-1-ium]
IC50 [1]: 0.4 nM | IC50 [2]: 0.4 nM | IC50 [3]: 1 nM | IC50 [4]: 0.4 nM

[O-][n+]1cccc(C[C@H](c2ccc(OC(F)F)c(OC3CC3)c2)c2ncc(C(O)(C(F)(F)F)C(F)(F)F)s2)c1 [(R)-(-)-3-{2-[(3-cyclopropyloxy-4-difluromethoxy)phenyl]-2-[5-(2-(1-hydroxy-1-trifluoromethyl-2,2,2-trifluoro)ethyl)thiazolyl]ethyl}pyridine N-Oxide]
IC50 [2]: 56 nM | IC50 [3]: 135 nM | IC50 [4]: 40 nM
